Measurements: patent publication US4232037A, “2,6-Dialkoxybenzamides, intermediates, pharamaceutical compositions and methods for treatment of psychotic disorders” (priority 1978, dated 1980)
Where a name gives a salt, the structure may show the parent alone. Read-outs that look alike come from different tables or passages of the source.

Experiments:
[1] = in vivo; cited from earlier work
[2] = test system: apomorphine induced hyperactivity; test: Block of apomorphine-induced hyperactivity in rats (number of animals displaying hyperactivity); assay type: in vivo, Male Sprague-Dawley rats; conditions: for ED50: Rattus norvegicus, 1 h
Method: Male Sprague-Dawley rats weighing 225-275 g were used. […] The compounds were injected 60 minutes prior to apomorphine hydrochloride (1 mg/kg) which was injected subcutaneously into the neck.
Directly after injection, the animals were placed in the cages, one in each cage. Scoring of the stereotypies were performed by two separate methods. The first scoring system was a modified version of the system introduced by Costall and Naylor (1973). The strength of the stereotypy was scored on a 0-3 scale as follows:
In the second system the number of animals displaying hyperactivity caused by apomorphine were scored. […] Saline controls were always run simultaneously. ED50 's are in the first scoring system (0-3 scale), the doses which reduce the strength of the stereotypies by 50% over the observation period of 60 minutes. ED50 's of the second scoring system are the doses which reduce the number of animals showing hyperactivity by 50% over the observation period of 60 minutes.

[3] = experimental animals; cited from earlier work
[4] = test system: apomorphine induced stereotypies; test: Block of apomorphine-induced stereotypies in rats (0-3 scale scoring); assay type: in vivo, Male Sprague-Dawley rats; conditions: for ED50: Rattus norvegicus, 1 h; for Stereotypies ED50: rat, hydrochloride, 60 min
Method: Male Sprague-Dawley rats weighing 225-275 g were used. […] The compounds were injected 60 minutes prior to apomorphine hydrochloride (1 mg/kg) which was injected subcutaneously into the neck. […] Directly after injection, the animals were placed in the cages, one in each cage. Scoring of the stereotypies were performed by two separate methods. The first scoring system was a modified version of the system introduced by Costall and Naylor (1973). […] Chewing, biting and | licking. In the second system the number of animals displaying hyperactivity caused by apomorphine were scored. […] Saline controls were always run simultaneously.

[5] = test system: DA receptors in the brain; test: Apomorphine antagonism in rats (stereotypies and hyperactivity together, results in words); assay type: in vivo, Male Sprague-Dawley rats; conditions: rat, p.o., Table 3
[6] = ip, i.p., 60 min before apomorphine hydrochloride 1 mg/kg s.c., 60 min observation, read-out: Hyperactivity ED50
[7] = po, p.o., same test system, read-out: Hypractivity ED50
[8] = po, p.o., same test system, read-out: Hypractivity ED50 (in parentheses, mg/kg)
[9] = ip, i.p., 60 min before apomorphine hydrochloride 1 mg/kg s.c., 60 min observation, read-out: Stereotypies ED50
[10] = po, p.o., same test system, read-out: Stereotypies ED50
[11] = po, p.o., same test system, read-out: Stereotypies ED50 (in parentheses, mg/kg)
[12] = i.p., 60 min before apomorphine hydrochloride 1 mg/kg s.c., 60 min observation

| SMILES | ED50 [2, 6] [µmol/kg] | ED50 [2, 7] [µmol/kg] | ED50 [2, 8] [mg/kg] | ED50 [4, 9] [µmol/kg] | ED50 [4, 10] [µmol/kg] | ED50 [4, 11] [mg/kg] | other results |
| --- | --- | --- | --- | --- | --- | --- | --- |
| CCN1CCCC1CNC(=O)c1cc(S(N)(=O)=O)ccc1OC (stereo not shown) [Sulpiride, reference compound] | 50 | > 586 | > 200 | 293 | > 586 | > 200 | extrapyramidal side effects [1]: weak extrapyramidal side effects; catalepsy [3]: weak catalepsy; activity after oral administration [5]: lost all activity |
| CCN1CCCC1CNC(=O)c1c(OC)c(Br)cc(Br)c1OC (single isomer, unassigned) [Example 12, N-Ethyl-2-(3,5-dibromo-2,6-dimethoxybenzamidomethyl) pyrrolidine] | ~11 |  |  | > 178 |  |  |  |
| CCN1CCCC1CNC(=O)c1c(OC)c(Br)cc(Br)c1OC.Cl (racemic) [Example 9, N-Ethyl-2-(3,5-dibromo-2,6-dimethoxybenzamidomethyl) pyrrolidine hydrochloride] | 1.8 | 5.5 | 2.7 | 5.3 | 8.2 | 4 |  |
| CCN1CCCC1CNC(=O)c1c(OC)c(Cl)cc(Cl)c1OC (racemic) [Example 10, N-Ethyl-2-(3,5-dichloro-2,6-dimethoxybenzamidomethyl) pyrrolidine] | 3 |  |  | 5.8 |  |  |  |
| CCN1CCCC1CNC(=O)c1c(OC)ccc(Br)c1OC.Cl (single isomer, unassigned) [Example 14, N-Ethyl-2-(3-bromo-2,6-dimethoxybenzamidomethyl) pyrrolidine hydrochloride] |  |  |  |  |  |  | Stereotypies ED50 [4, 12]: 5.6 µmol/kg |
| CCN1CCCC1CNC(=O)c1c(OC)ccc(Br)c1OC.Cl (racemic) [Example 7, N-Ethyl-2-(3-bromo-2,6-dimethoxybenzamidomethyl)pyrrolidine hydrochloride] | 11 | 17 | 7 | 23 | 47 | 19 |  |
| CCN1CCCC1CNC(=O)c1c(OC)ccc(Cl)c1OC (racemic) [Example 8, N-Ethyl-2-(3-chloro-2,6-dimethoxybenzamidomethyl)pyrrolidine hydrochloride] | 30 |  |  | 47 |  |  |  |
| CCN1CCCC1CNC(=O)c1c(OC)c(Br)cc(Br)c1OC (single isomer, unassigned) [Example 13, N-Ethyl-2-(3,5-dibromo-2,6-dimethoxybenzamidomethyl) pyrrolidine hydrochloride] | 0.33 |  |  | 3.3 |  |  |  |
| CCN1CCCC1CNC(=O)c1c(OC)ccc(Br)c1OC.Cl (single isomer, unassigned) [Example 15, N-Ethyl-2-(3-bromo-2,6-dimethoxybenzamidomethyl) pyrrolidine hydrochloride] |  |  |  |  |  |  | Hyperactivity ED50 ([2]; rat, i.p., 60 min before apomorphine hydrochloride 1 mg/kg s.c., 60 min observation, hydrochloride, 60 min): ~ 123 μmol/kg; Stereotypies ED50 [4, 12]: > 196 µmol/kg |
| CCN1CCCC1CNC(=O)c1c(OC)c(Cl)cc(Br)c1OC (racemic) [Example 11, N-Ethyl-2-(3-bromo-5-chloro-2,6-dimethoxybenzamidomethyl) pyrrolidine] | 3.9 |  |  | 6.2 |  |  |  |
